From US4876260A, “Oxathiolanes” (State of Israel, Israel Institute of Biological Research, priority 1988, dated 1989)

What was measured:
[1] = molecular target: T1, muscarinic receptors (3H-QNB sites, cerebellum, mainly M2) (Rattus norvegicus, UniProt P10980); assay: biochemical; assay type: binding; details: Ki(3H-QNB), (b") cerebellum
T1 sequence (P10980 1-466): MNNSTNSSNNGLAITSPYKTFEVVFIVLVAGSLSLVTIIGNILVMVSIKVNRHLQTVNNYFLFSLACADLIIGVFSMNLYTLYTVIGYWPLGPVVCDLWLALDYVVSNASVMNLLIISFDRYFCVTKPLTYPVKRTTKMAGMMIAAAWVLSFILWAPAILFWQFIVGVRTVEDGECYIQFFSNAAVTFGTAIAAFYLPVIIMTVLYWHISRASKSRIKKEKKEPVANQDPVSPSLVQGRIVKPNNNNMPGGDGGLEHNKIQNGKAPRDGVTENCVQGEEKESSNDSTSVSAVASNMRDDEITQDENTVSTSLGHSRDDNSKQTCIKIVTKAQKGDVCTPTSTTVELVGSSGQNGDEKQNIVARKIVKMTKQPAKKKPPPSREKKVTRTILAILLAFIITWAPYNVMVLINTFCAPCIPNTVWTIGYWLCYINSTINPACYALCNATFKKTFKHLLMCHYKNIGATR

[2] = tested on: muscarinic receptors (3H-QNB sites, cerebellum, mainly M2); assay: biochemical; assay type: binding, rat
mice = assay: Pharmacodynamic profile and general toxicity in mice; assay type: in vivo, CD-1 mice
Method: Male white mice of the CD-1 strain supplied by Charles River Ltd. (U.K.) were used throughout. An acclimatization period of at least three days was allowed between arrival and commencement of a particular experimental series. The animals were fed a complete commercial pelleted rodent diet without restriction during the acclimatization and study periods. Animals had free access to tap water. Body weights during testing were mostly within 20-28 g.
Test materials were prepared as aqueous solutions in physiological saline (0.9% NaCl), up to a maximum concentration of 10 mg./ml. All materials were freshly prepared on the morning prior to each dosing session. Dosages were expressed gravimetrically (mg./kg.), in terms of the materials as received.
Groups of mice (mostly n=5) received either i.v. or oral administration of the test materials at various dose levels. Dose volumes appropriate for respective dose levels selected, were determined for each animal according to body weights on the day of dosing. Any behavioral changes occurring during one to two hours after administration, as well as incidence of death up to 24 hours after dosing were recorded.

[3] = molecular target: T2, M1 muscarinic receptors (3H-PZ sites, forebrain) (Rattus norvegicus, UniProt P08482); assay: Displacement of 3H-Pirenzepine (3H-PZ, selective M1 antagonist) from rat forebrain homogenate; assay type: binding; details: for M1 selectivity (in words): from Tables 2A, 2B, 2C
T2 sequence (P08482 1-460): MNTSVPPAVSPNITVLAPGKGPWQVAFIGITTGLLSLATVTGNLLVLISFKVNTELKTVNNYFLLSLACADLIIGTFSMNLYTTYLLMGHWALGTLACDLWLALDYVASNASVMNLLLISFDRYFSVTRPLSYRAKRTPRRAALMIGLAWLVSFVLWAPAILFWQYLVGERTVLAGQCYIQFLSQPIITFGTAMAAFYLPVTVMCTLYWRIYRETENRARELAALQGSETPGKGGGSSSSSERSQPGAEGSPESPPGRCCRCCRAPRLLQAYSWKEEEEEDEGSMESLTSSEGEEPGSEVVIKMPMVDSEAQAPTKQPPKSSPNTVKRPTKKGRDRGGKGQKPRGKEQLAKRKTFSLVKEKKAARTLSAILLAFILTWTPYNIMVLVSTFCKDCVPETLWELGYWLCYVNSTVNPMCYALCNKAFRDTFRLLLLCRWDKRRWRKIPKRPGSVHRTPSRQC

[4] = molecular target: muscarinic receptors (3H-QNB sites, frontal cortex); assay type: binding, rat; details: (b') frontal cortex
[5] = molecular target: muscarinic receptors (3H-CD sites, frontal cortex); assay: Displacement of 3H-CD from rat frontal cortex homogenate; assay type: binding; details: (c') frontal cortex
[6] = molecular target: T3, M1 muscarinic receptors (3H-PZ sites, frontal cortex) (Rattus norvegicus, UniProt P08482); assay: Displacement of 3H-PZ from rat frontal cortex homogenate; assay type: binding; details: for Ki: (a') frontal cortex, read-out: Ki(3H-PZ)
T3 sequence (P08482 1-460): T2 sequence (P08482 1-460)

[7] = molecular target: muscarinic receptors (3H-QNB sites, M1 and M2, forebrain); assay type: binding, rat; details: (b) forebrain
[8] = tested on: AF64A-induced cognitive impairment (passive avoidance); assay: Step-through passive avoidance in AF64A- and saline-injected rats; assay type: in vivo; details: for Retention Latency: 72 hour retention test
From the text: Development of potential drugs for the treatment of Alzheimer's disease requires their evaluation in appropriate animal models for this disease. […] This hippocampal cholinergic deficiency is accompanied by statistically significant cognitive impairments (inter alia) in step-through passive avoidance (PA). The present PA experiment investigated the possibility of reversing such impairments by administration of (+)-III (AF122B).
[…] post-operation, the AF64A and saline-injected groups were randomly subdivided into two treatment sub-groups. Sub-group 1 was treated with 1 mg./kg. i.p. (+)-III (AF122B), while sub-group 2 was treated with […]. i.p. saline. The drug or saline were administered immediately after shock.

[9] = tested on: isolated guinea-pig ileum; assay: Contraction of isolated guinea-pig ileum preparation; details: listed as (+)-AF122B
From the text: From this Table, it appears that compounds (III) were not so effective in contracting the guinea pig ileum preparation.

[10] = 10 mg/kg i.v., listed as (+)-III AF122B
[11] = 25 mg/kg i.v., listed as (+)-III AF122B
[12] = 50 mg/kg i.v., listed as (+)-III AF122B
[13] = 200 mg/kg p.o., listed as (+)-III AF122B
[14] = AF64A-injected rats, 1 mg./kg. i.p.
[15] = saline-injected rats, 1 mg./kg. i.p.

## C[C@H]1O[C@@]2(CN3CCC2CC3)CS1(=O)=O (relative stereo) [compound 14, cis-2-methylspiro(1,3-oxathiolan-5,3')quinuclidine-3,3-dioxide]
[1]
  Ki: 44.1 ± 6.5 µM
[2]; (i) Ki(3H-PZ) frontal cortex : Ki(3H-QNB) cerebellum
  a':b": 2.6
[2]; (k) Ki(3H-QNB) frontal cortex : Ki(3H-QNB) cerebellum
  b':b": 0.77
mice; 50 mg/kg i.v.
  Analgesia (nonresponsiveness to tail pinch), No. affected/total treated: 3/5
  Mortality, No. dead/total treated: 0/5
mice; 100 mg/kg i.v.
  Analgesia (nonresponsiveness to tail pinch), No. affected/total treated: 5/5
  Mortality, No. dead/total treated: 0/5
mice; 100 mg/kg p.o.
  Mortality, No. dead/total treated: 0/5
mice; 200 mg/kg p.o.
  Analgesia (nonresponsiveness to tail pinch), No. affected/total treated: 5/5
  Mortality, No. dead/total treated: 0/5
[3]; compared with (±)-cis-(II)
  potency (in words): losing some of its potency
[3]
  M1 selectivity (in words): high M1 selectivity
[3]; listed as (±)-cis-(II)-sulfone
  M1 selectivity (in words): still preserved an outstanding profile as judged by its M1 selectivity (ratio a':c')
[4]
  Ki: 34.1 ± 3 µM
[5]
  Ki: 3.06 ± 2 µM
[6]
  a':b', Ki(3H-PZ):Ki(3H-QNB): 0.18
  Ki: 5.5 ± 0.43 µM
[6]; (g) frontal cortex ratio
  a':c', Ki(3H-PZ):Ki(3H-CD): 1.8

## CC1OCC2(CN3CCC2CC3)S1 (centres unmarked) [compound 7, 2-methylspiro(1,3-oxathiolan-4,3')quinuclidine]
[3]
  a:b, Ki(3H-PZ):Ki(3H-QNB): 0.17
[3]; (a) forebrain
  Ki: 1.22 ± 0.4 µM
[3]; listed as Compound (III)
  M1 selectivity (in words): M1 selectivity is preserved even in the mixture of the geometrical isomers
[7]
  Ki: 7 ± 0.5 µM

## CC1OCC2(CN3CCC2CC3)S1 (single isomer, unassigned) [compound 10, 2-methylspiro(1,3-oxathiolan-4,3')quinuclidine]
mice; 10 mg/kg i.v.
  Convulsive seizures, No. affected/total treated: 2/8
  Mortality, time after drug administration: 5 s
  Respiratory distress, No. affected/total treated: 1/8
  Tremors, No. affected/total treated: 2/8
mice; [10]
  Analgesia (nonresponsiveness to tail pinch), No. affected/total treated: 5/8
  Mortality, No. dead/total treated: 1/8
mice; [11]
  Convulsive seizures, No. affected/total treated: 5/5
  Mortality, No. dead/total treated: 4/5
  Mortality, time after drug administration: 30 s
  Respiratory distress, No. affected/total treated: 1/5
  Tremors, No. affected/total treated: 4/5
mice; [12]
  Mortality, No. dead/total treated: 2/2
  Mortality, time after drug administration: 5 s
mice; 100 mg/kg i.v., immed = immediately
  Mortality, time after drug administration: immed
mice; 100 mg/kg i.v., listed as (+)-III AF122B
  Mortality, No. dead/total treated: 2/2
mice; 100 mg/kg p.o.
  Analgesia (nonresponsiveness to tail pinch), No. affected/total treated: 5/5
  Respiratory distress, No. affected/total treated: 1/5
  Vocalization, No. affected/total treated: 1/4
mice; 100 mg/kg p.o., listed as (+)-III AF122B
  Mortality, No. dead/total treated: 0/5
mice; 200 mg/kg p.o.
  Tremors, No. affected/total treated: 3/5
mice; [13]
  Altered motor activity: a+h
  Analgesia (nonresponsiveness to tail pinch), No. affected/total treated: 5/5
  Convulsive seizures, No. affected/total treated: 5/5
  Mortality, No. dead/total treated: 0/5
  Respiratory distress, No. affected/total treated: 4/5
  Vocalization, No. affected/total treated: 2/5
[8]; [14]
  Passive avoidance retention (in words): improved the passive avoidance retention of AF64A-injected rats
  Retention Latency: 549.5 ± 29.1 s
[8]; AF64A-injected rats, 1 mg./kg. i.p., p<0.01
  Effect on retention latency (in words): prolonged the retention latency of AF64A-injected rats
[8]; between any of the groups
  Initial latency (training) (in words): No significant differences were found during training
[8]; [15]
  Effect on retention latency (in words): no significant effect on the retention latency of saline-injected rats
  Retention Latency: 552 ± 33.7 s
[6]
  Ki: 7.4 µM
[9]
  Contraction of guinea pig ileum (in words): active enantiomer
